Assays:
HiBit-KRAS^G12C [1] = target: T1, HiBit-KRAS^G12C (Homo sapiens, UniProt P01116, G12C); test: HiBit degradation assay in SW1573 HiBit-KRas^G12C cells; assay type: cell-based; design: expressed in transfected cells; host or cells: SW1573 (clone E6), modified pcDNA3.1 vector, TK promoter; details: SW1573 HiBit-KRas^G12C, 0.5% DMSO, 24 hours; for DC50: read-out: KRas^G12C-HiBiT (SW1573; 0.5% DMSO) IC50***
In short: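 SW1573 cells stably expressing N-terminally HiBit-tagged KRAS G12C, under the TK promoter, were treated 24 h at 37 °C with 10 μM to 20 nM compound in 0.1% or 0.5% DMSO. Residual HiBit luminescence normalised to DMSO and fitted with a 4-parameter model for DC50 and Dmax. Points with ≥50% viability loss (alamar blue) excluded.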

HiBit-KRAS^G12C [2] = target: T1, HiBit-KRAS^G12C; test: HiBit degradation assay in MiaPaCa-2 HiBit-KRas^G12C cells; assay type: cell-based; details: 0.5% DMSO, 24 hours; for DC50: read-out: KRas^G12C-HiBiT (MiaPaCa; 0.5% DMSO) IC50; for DC50 / KRas^G12C-HiBiT (MiaPaCa; 0.5% DMSO) DMax: MiaPaCa-2 HiBit-KRas^G12C cells; for KRas^G12C-HiBiT (MiaPaCa; 0.5% DMSO) DMax / Dmax: maximum degradation; for Dmax: MIA PaCa-2, MiaPaCa-2 HiBit-KRas^G12C cells, read-out: KRas^G12C-HiBiT (MiaPaCa; 0.5% DMSO) DMax
Method: Reagents. SW1573 (CRL-2170) and MiaPaCa-2 (CRL-1420) cells were purchased from ATCC. Both cell lines are […] for the G12C mutation in KRAS. SW1573 cells were cultured in DMEM+F12+Glutamax (+Sodium Bicarbonate, +sodium pyruvate, Thermofisher scientific, #10565) supplemented with 10% FBS (Thermofisher scientific, #2060357) and 1% Antibiotic-Antimycotic (Thermofisher scientific, #15240096). MiaPaCa-2 cells were cultured in DMEM+Glutamax media (Thermofisher scientific, #10566) supplemented with 10% FBS (Thermofisher scientific, #2060357) and 1% Antibiotic-Antimycotic (Thermofisher scientific, #15240096). For degradation assays, 384 well plates were purchased from Corning (Corning® CellBIND® 384-well Flat Clear Bottom Black Polystyrene Microplates, Low Flange, #3770). Gambogic acid was purchased from Selleckchem (#S2448). Alamar blue was purchased from Thermofisher scientific (A50101) and used according to manufacturer instructions. The Nano-Glo® HiBit Lytic Detection System and Nano-Glo® HiBit Blotting System were purchased from Promega (#N3050 and #N2410) and used according to manufacturer instructions.
To create the MiaPaCa-2 HiBit-KRAS^G12C cell line, CRISPR-Cas9 was used to insert the HiBit tag onto the N-terminus of one or more of the four endogenous KRAS^G12C alleles. After knock-in of the tag, individual clones were isolated by single cell dilution and screened for HiBit insertion by PCR. Clones containing the HiBit tag were sequenced and one was identified that contained the desired HiBit-KRAS^G12C sequence at one allele while the remaining three KRAS^G12C alleles were unaffected. This line was used for all subsequent studies.
Either SW1573 HiBit-KRas^G12C or MiaPaCa-2 HiBit-KRas^G12C cells were plated at 9000 cells/well in a 384 well plate (Corning #3770). Exemplary heterobifunctional molecules and positive controls were diluted in the appropriate cell media and applied to the plated cells resulting in a final concentration titration of 10 μM to 20 nM in either 0.1% or 0.5% dimethyl sulfoxide (DMSO). Gambogic acid was used as a positive control for cytotoxicity and titrated from 10 μM to 78 nM. All assays were performed in triplicate. Cells were treated with compounds for 24 hours at 37° C. in an incubator containing 5% CO2. Following treatment, alamar blue was used to determine if any compounds led to a loss in cell viability after 24 hours. The 10× alamar blue reagent was added to a final concentration of 1× as recommended by the manufacturer and cells were returned to the incubator for 4 hours. Plates were then allowed to equilibrate to room temperature and fluorescence was measured using a Perkin-Elmer EnVision. After completion of the fluorescence read, the liquid from each well was removed and the cells were washed with PBS. The Nano-Glo® HiBiT detection reagent was prepared according to the manufacturer's instructions and added to each well after the PBS wash was removed. Following incubation at room temperature for 45 minutes, the luminescence was read using the ultra-sensitive luminescence aperture on the Envision instrument.
Fluorescence values from the alamar blue treatment were normalized to the DMSO only control for each compound titration. We hypothesized that compounds that led to a ≥50% loss in cell viability of the KRAS-independent SW1573 HiBit-KRas^G12C cells were likely generally cytotoxic and loss of HiBit-KRAS^G12C signal from these compounds may be due to lower cell number and not specific KRAS^G12C degradation. These points were therefore excluded from the data analysis for degradation. […]

T1 sequence (P01116 1-186 isoform P01116-2 G12C limits assumed): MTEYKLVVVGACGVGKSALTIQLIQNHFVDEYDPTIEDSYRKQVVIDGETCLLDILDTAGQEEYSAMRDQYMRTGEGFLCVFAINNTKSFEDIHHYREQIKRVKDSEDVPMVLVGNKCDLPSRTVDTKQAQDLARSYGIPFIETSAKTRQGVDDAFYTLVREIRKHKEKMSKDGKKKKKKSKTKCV

SMILES	DC50 (HiBit-KRAS^G12C [1])	DC50 (HiBit-KRAS^G12C [2])	KRas^G12C-HiBiT (SW1573; 0.5% DMSO) Dmax** (HiBit-KRAS^G12C [1])	KRas^G12C-HiBiT (MiaPaCa; 0.5% DMSO) DMax (HiBit-KRAS^G12C [2])	Dmax (HiBit-KRAS^G12C [2])
C=CC(=O)N1CCN(c2nc(OCCN3CCC4(CC3)CN(c3cc([C@@H](C(=O)N5C[C@H](O)C[C@H]5C(=O)N[C@@H](C)c5ccc(-c6ccnn6C)cc5)C(C)C)on3)C4)nc3c(F)c(-c4cc(O)cc5ccccc45)c(Cl)cc23)C[C@@H]1CC#N (atropisomer, axis not shown) [Compound 101, (2S,4R)-1-[(2S)-2-(3-{7-[2-({6-chloro-4-[(3S)-3-(cyanomethyl)-4-(prop-2-enoyl)piperazin-1-yl]-8-fluoro-7-(3-hydroxynaphthalen-1-yl)quinazolin-2-yl}oxy)ethyl]-2,7-diazaspiro[3.5]nonan-2-yl}-1,2-oxazol-5-yl)-3-methylbutanoyl]-4-hydroxy-N-[(1S)-1-[4-(1-methyl-1H-pyrazol-5-yl)phenyl]ethyl]pyrrolidine-2-carboxamide]	> 1000 nM	> 1000 nM			
C=CC(=O)N1CCN(c2nc(OCCN3CCC(COc4cc([C@@H](C(=O)N5C[C@@H](O)C[C@H]5C(=O)N[C@@H](C)c5ccc(-c6scnc6C)cc5)C(C)C)on4)CC3)nc3c(F)c(-c4cc(O)cc5ccccc45)c(Cl)cc23)C[C@@H]1CC#N (atropisomer, axis not shown) [Compound 105, (2S,4S)-1-[(2S)-2-[3-({1-[2-({6-chloro-4-[(3S)-3-(cyanomethyl)-4-(prop-2-enoyl)piperazin-1-yl]-8-fluoro-7-(3-hydroxynaphthalen-1-yl)quinazolin-2-yl}oxy)ethyl]piperidin-4-yl}methoxy)-1,2-oxazol-5-yl]-3-methylbutanoyl]-4-hydroxy-N-[(1S)-1-[4-(4-methyl-1,3-thiazol-5-yl)phenyl]ethyl]pyrrolidine-2-carboxamide]	> 1000 nM	< 100 nM			< 35%
C=CC(=O)N1CCN(c2nc(OCCN3CCC4(CC3)CN(c3cc([C@@H](C(=O)N5C[C@H](O)C[C@H]5C(=O)N[C@@H](C)c5ccc(-c6scnc6C)cc5)C(C)C)on3)C4)nc3c(F)c(-c4cc(O)cc5ccccc45)c(Cl)cc23)C[C@@H]1CC#N (atropisomer, axis not shown) [Compound 108, (2S,4R)-1-[(2S)-2-(3-{7-[2-({6-chloro-4-[(3S)-3-(cyanomethyl)-4-(prop-2-enoyl)piperazin-1-yl]-8-fluoro-7-(3-hydroxynaphthalen-1-yl)quinazolin-2-yl}oxy)ethyl]-2,7-diazaspiro[3.5]nonan-2-yl}-1,2-oxazol-5-yl)-3-methylbutanoyl]-4-hydroxy-N-[(1S)-1-[4-(4-methyl-1,3-thiazol-5-yl)phenyl]ethyl]pyrrolidine-2-carboxamide]	> 1000 nM	100 to 1000 nM			< 35%

Further lines, results first:

DC50 (HiBit-KRAS^G12C [1])	DC50 (HiBit-KRAS^G12C [2])	KRas^G12C-HiBiT (SW1573; 0.5% DMSO) Dmax** (HiBit-KRAS^G12C [1])	KRas^G12C-HiBiT (MiaPaCa; 0.5% DMSO) DMax (HiBit-KRAS^G12C [2])	Dmax (HiBit-KRAS^G12C [2])	SMILES
100 to 1000 nM	> 1000 nM				C=C(F)C(=O)N1CCN(c2nc(OCCN3CCC4(CC3)CN(c3cc([C@@H](C(=O)N5C[C@H](O)C[C@H]5C(=O)N[C@@H](C)c5ccc(-c6ccnn6C)cc5)C(C)C)on3)C4)nc3c(F)c(-c4cc(O)cc5ccccc45)c(Cl)cc23)C[C@@H]1CC#N (atropisomer, axis not shown) [Compound 103, (2S,4R)-1-[(2S)-2-(3-{7-[2-({6-chloro-4-[(3S)-3-(cyanomethyl)-4-(2-fluoroprop-2-enoyl)piperazin-1-yl]-8-fluoro-7-(3-hydroxynaphthalen-1-yl)quinazolin-2-yl}oxy)ethyl]-2,7-diazaspiro[3.5]nonan-2-yl}-1,2-oxazol-5-yl)-3-methylbutanoyl]-4-hydroxy-N-[(1S)-1-[4-(1-methyl-1H-pyrazol-5-yl)phenyl]ethyl]pyrrolidine-2-carboxamide]
100 to 1000 nM	100 to 1000 nM	C (C ≤ 35)	C (C ≤ 35)		C=CC(=O)N1CCN(c2nc(OCCN3CCC(COc4cc([C@H](C(=O)N5C[C@H](O)C[C@H]5C(=O)N[C@@H](C)c5ccc(-c6scnc6C)cc5)C(C)C)on4)CC3)nc3c(F)c(-c4cc(O)cc5ccccc45)c(Cl)cc23)C[C@@H]1CC#N (atropisomer, axis not shown) [Compound 104, (2S,4R)-1-[(2R)-2-[3-({1-[2-({6-chloro-4-[(3S)-3-(cyanomethyl)-4-(prop-2-enoyl)piperazin-1-yl]-8-fluoro-7-(3-hydroxynaphthalen-1-yl)quinazolin-2-yl}oxy)ethyl]piperidin-4-yl}methoxy)-1,2-oxazol-5-yl]-3-methylbutanoyl]-4-hydroxy-N-[(1S)-1-[4-(4-methyl-1,3-thiazol-5-yl)phenyl]ethyl]pyrrolidine-2-carboxamide]
> 1000 nM	< 100 nM			< 35%	C=CC(=O)N1CCN(c2nc(OCCN3CCC(COc4cc([C@H](C(=O)N5C[C@@H](O)C[C@H]5C(=O)N[C@@H](C)c5ccc(-c6scnc6C)cc5)C(C)C)on4)CC3)nc3c(F)c(-c4cc(O)cc5ccccc45)c(Cl)cc23)C[C@@H]1CC#N (atropisomer, axis not shown) [Compound 106, (2S,4S)-1-[(2R)-2-[3-({1-[2-({6-chloro-4-[(3S)-3-(cyanomethyl)-4-(prop-2-enoyl)piperazin-1-yl]-8-fluoro-7-(3-hydroxynaphthalen-1-yl)quinazolin-2-yl}oxy)ethyl]piperidin-4-yl}methoxy)-1,2-oxazol-5-yl]-3-methylbutanoyl]-4-hydroxy-N-[(1S)-1-[4-(4-methyl-1,3-thiazol-5-yl)phenyl]ethyl]pyrrolidine-2-carboxamide]
< 100 nM	< 100 nM	B (35 < B < 70)	B (35 < B < 70)		C=CC(=O)N1CCN(c2nc(OCCN3CCC4(CC3)CN(c3cc([C@H](C(=O)N5C[C@H](O)C[C@H]5C(=O)N[C@@H](C)c5ccc(-c6scnc6C)cc5)C(C)C)on3)C4)nc3c(F)c(-c4cc(O)cc5ccccc45)c(Cl)cc23)C[C@@H]1CC#N (atropisomer, axis not shown) [Compound 107, (2S,4R)-1-[(2R)-2-(3-{7-[2-({6-chloro-4-[(3S)-3-(cyanomethyl)-4-(prop-2-enoyl)piperazin-1-yl]-8-fluoro-7-(3-hydroxynaphthalen-1-yl)quinazolin-2-yl}oxy)ethyl]-2,7-diazaspiro[3.5]nonan-2-yl}-1,2-oxazol-5-yl)-3-methylbutanoyl]-4-hydroxy-N-[(1S)-1-[4-(4-methyl-1,3-thiazol-5-yl)phenyl]ethyl]pyrrolidine-2-carboxamide]

Reference: patent US20220370416A1, “COMPOUNDS AND METHODS FOR TARGETED DEGRADATION OF KRAS” (Arvinas Operations, Inc., priority 2020, published 2022)
